Experimental findings from patent publication US11274132B2, “Combined preparations of PKM2 modulators and HMGB1” (Ruprecht-Karls-Universität Heidelberg, priority 2015, dated 2022) are described below.

“Also recorded” adds a separate entry of the source. Like-named read-outs stand apart in the source and are kept apart here. Residues, ends and D or L forms follow the SMILES beside them.

Data set [1] relates to HCT116 colorectal cancer cells. Put plainly: Crystal violet cytotoxicity assay. The data set is classed as cell-based. The settings on record: 72 h. Here is the method: (§1) Human colon carcinoma cell lines SW480, HCT116, HT29 and Caco2, the human glioblastoma cell line U251MG and the Natural killer cell line NK-92 Cl were purchased from ATCC. Cell lines were regularly tested for contamination by multiplex PCR performed in the Genomics and Proteomics Core Facility 2 (DKFZ, Heidelberg, Germany). For experiments, cells were cultured for no more than 10 passages. Rho zero cells were generated as described earlier 1. (Gdynia, G. et al. Danger signaling protein HMGB1 induces a distinct form of cell death accompanied by formation of giant mitochondria. Cancer research 70, 8558-8568). Cells used in the experiments were cultured in RPMI (#1640, colon carcinomas, NK cells) or DMEM high glucose (#41965-039, glioblastoma cells) medium. Rho zero cells were generated as described earlier (Gdynia, G. et al. ibd.). Briefly, cells were cultured in RPMI medium (10% FCS, 1% P/S) supplemented with 250 ng/ml ethidiumbromide, 50 μg/ml L-pyruvate and 5 mg/ml uridine over a period of 12 weeks. For cytotoxicity measurements, cells were cultured in 96-well plates, treated with recombinant human HMGB1 protein (Sigma-Aldrich®), glycyrrhizinic acid ((3β, 18α)-30-hydroxy-11, 30-dioxoolean-12-en-3-yl 2-O-β-D-glucopyranuronosyl-β-D-glucopyranosiduronic acid)) (Sigma-Aldrich®), 10 μM (non-toxic) or 100 μM (cytotoxic) P-M2tide (aa sequence: GGAVDDDpYAQFANGG; #BML-P239-0001; Enzo Life Sciences) or 100 μM ML-265 (Cayman Chemical), then cell viability was assessed by crystal violet staining (Gillies, R. J., Didier, N. & Denton, M. Determination of cell number in monolayer cultures. Analytical biochemistry 159, 109-113 (1986)). Malic enzyme 1 knock-down was performed with 40 nM siRNA using lipofectamine in 6-well plates followed by treatment with 80 nM HMGB1 for 72 h. Sequences of siRNA were: ME1, 5′-[…]-3′ and scrambled control 5′-CCUGCAGUACUUCAAGCGGtt-3′. PKM2 siRNA was from Santa Cruz. A nonspecific siRNA served as control (Dharmacon, Schwerte, Germany). For overexpression of PKM2 or ME1, cells were transfected with pCMV-PKM2 (Sino Biological Inc., Beijing, China) or pCMV-ME1 (OriGene, Rockville, Md., USA) using Lipofectamine 2000. For cytotoxicity measurements confluent cells were cultured in 96-well plates if not otherwise indicated. Cytotoxic activity of supernatants from stimulated NK cells was assessed in 96-well plates for 3 days with RPMI medium as reference. Recombinant human HMGB1 (10 ng, Sigma) suited as positive control. For mass isotopomer assays, cells were cultured in glucose- or glutamine-free medium supplemented with either uniformly labeled (U)-13C-D-glucose or U-13C-glutamine (Sigma-Aldrich®).

Data set [2] deals with SW480 colorectal cancer cells. As to the kind of experiment: Crystal violet cytotoxicity assay. The format is cell-based. The following applies: 72 h. As to the method:
as §1

The next data set deals with CLL cells. As to the kind of experiment: CellTiter-Glo Luminescent Cell Viability Assay. The data set is classed as cell-based, human.
A further data set concerns colorectal cancer cells. Put plainly: Crystal violet cytotoxicity assay, cell lines not given. The data set is classed as cell-based. As to the method:
as §1

The test system of the next data set is HT29 cells. As to the kind of experiment: Crystal violet cytotoxicity assay. The format is cell-based. The settings on record: 80 nM or 160 nM, 72 h. As to the method: as §1
A short description of data set [3]: CellTiter-Glo Luminescent Cell Viability Assay. The format is cell-based, human. The following applies: human, CLL cells from a patient, DASA 100 μM, read-out: Viable cells [DASA]. For orientation: Cellular ATP, detected with luciferase, serves as a proxy for viable cell number.
The next data set deals with PKM2 (Homo sapiens, UniProt P14618). Put plainly: Immunoprecipitation with 125I-labeled HMGB1 (PKM2 pull-down). The data set is classed as binding. The following applies: P-M2tide at non-cytotoxic concentrations. More on the design: endogenous in cells. Here is the method: FIG. 6: Co-administration of HMGB1 and an activator (A left and right) or an inhibitor (B) of PMK2 has a synergistic cytotoxic effect, as determined in the crystal violet cytotoxicity assay (assays were performed in duplicate, * indicates p<0.05). (C) Immunoprecipitation with I125-labeled HMGB1 (PKM2 pull-down). HMGB1, like phosphotyrosine-peptides, binds close to the allosteric center of PKM2, leading to a competition in binding.
PKM2, sequence (P14618 whole entry): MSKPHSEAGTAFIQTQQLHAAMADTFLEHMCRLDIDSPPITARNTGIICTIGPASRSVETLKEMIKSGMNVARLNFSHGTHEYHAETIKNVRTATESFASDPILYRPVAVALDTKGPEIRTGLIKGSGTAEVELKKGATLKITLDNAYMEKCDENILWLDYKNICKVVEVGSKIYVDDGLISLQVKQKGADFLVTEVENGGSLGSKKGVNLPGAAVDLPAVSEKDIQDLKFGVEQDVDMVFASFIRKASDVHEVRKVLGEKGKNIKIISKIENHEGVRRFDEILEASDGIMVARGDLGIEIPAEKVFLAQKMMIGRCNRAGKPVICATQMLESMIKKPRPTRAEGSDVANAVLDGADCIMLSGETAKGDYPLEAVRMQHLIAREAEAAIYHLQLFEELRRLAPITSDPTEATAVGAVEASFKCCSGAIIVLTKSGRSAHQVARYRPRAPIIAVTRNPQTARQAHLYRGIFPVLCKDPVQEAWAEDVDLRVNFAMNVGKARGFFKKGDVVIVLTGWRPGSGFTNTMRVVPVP

[4] abbreviates: NK cell derived HMGB1 approx. 16 nM, recombinant human HMGB1 80 nM.

As to `CC[C@H]1/C=C/C=C/C[C@@H](C)[C@H](O)[C@@](C)(O)C(=O)[C@@H](C)[C@H](O)[C@@H](C)C(=O)[C@@H](C)[C@H](O)[C@@H](C)/C=C/C(=O)O[C@@H]2[C@H](C)[C@H](CC1)O[C@]1(CC[C@H](C)[C@H](C[C@@H](C)O)O1)[C@H]2C` [oligomycin, reference compound], the cell death entry in data set [1] (oligomycin 10 ng/ml) and in data set [2] (oligomycin 10 ng/ml) was “rapid cell death” each time.
Regarding `CC(C)[C@H](NC(=O)[C@H](C)NC(=O)CNC(=O)CN)C(=O)N[C@@H](CC(=O)O)C(=O)N[C@@H](CC(=O)O)C(=O)N[C@@H](CC(=O)O)C(=O)N[C@@H](Cc1ccc(OP(=O)(O)O)cc1)C(=O)N[C@@H](C)C(=O)N[C@@H](CCC(N)=O)C(=O)N[C@@H](Cc1ccccc1)C(=O)N[C@@H](C)C(=O)N[C@@H](CC(N)=O)C(=O)NCC(=O)NCC(=O)O` [P-M2tide, GGAVDDDpYAQFANGG] (HELM PEPTIDE1{G.G.A.V.D.D.D.[O=C([C@H](Cc1ccc(OP(=O)(O)O)cc1)N[*:1])[*:2]].A.Q.F.A.N.G.G}$$$$V2.0), the “Viable cells [PM2-tide]” value in the data set on CLL cells (patient P0010, sample 13PB0501, PM2-tide 100 μM, 250 µM) worked out at 100%; in the data set on CLL cells (patient P0010, sample 14PB0132, PM2-tide 100 μM, 250 µM), 75%; in the data set on CLL cells (patient P0074, sample 14BP0079, * responding to 100 μM PM2-tide) it was 46%*; in the data set on CLL cells (patient P0369, sample 13PB0555, PM2-tide 100 μM, 250 µM), 100%; in the data set on CLL cells (patient P0460, sample 14PB0471, * responding to 100 μM PM2-tide), 56%*; with CLL cells (patient P0641, sample 13PB0500, PM2-tide 100 μM, 250 µM), 100%. The “Viable cells [PM2-tide]” value in the data set on CLL cells (patient P0641, sample 13PB0649, PM2-tide 100 μM, 250 µM) worked out at 93%; in the data set with CLL cells (patient P0645, sample 13PB0473, PM2-tide 100 μM, 250 µM), 91%; in the data set with CLL cells (patient P0701, sample 14PB0451, PM2-tide 100 μM, 250 µM), 100%. The figures for the toxicity result in the data set with colorectal cancer cells (10 μM P-M2tide) and with colorectal cancer cells (100 μM P-M2tide) were “non-toxic” and “cytotoxic”, respectively.
Take `[N-]=[N+]=CC(=O)CC[C@H](N)C(=O)O` [L-DON, 6-diazo-5-oxo-L-norleucine]: the “cytotoxicity of glutaminolysis inhibition together with HMGB1” value with colorectal cancer cells (L-DON 1 μM with HMGB1, glucose deprived and glucose supplemented medium) is “synergistic cytotoxicity”.
As to “NK cell derived HMGB1: HMGB1 isolated from the cytosolic granules of the NK cell line NK-92 CI by HPLC (eluate #38)”, the “side-by-side cytotoxicity versus recombinant HMGB1” value in the data set with HT29 cells is “higher cytotoxicity than recombinant HMGB1”. The “cell death (cytotoxicity)” value in data set [1] (setting [4]) and in data set [2] (setting [4]) was “efficiently killed” in each case.
As for `O=S(=O)(c1ccc2c(c1)OCCO2)N1CCN(S(=O)(=O)c2c(F)cccc2F)CC1` [DASA, 1-(2,6-Difluorophenylsulfonyl)-4-(2,3-dihydrobenzo[b][1,4]dioxin-6-ylsulfonyl)piperazine], the viability at 100 μM in data set [3] (patient P0010, sample 13PB0501) turned out to be 100%; in data set [3] (patient P0010, sample 14PB0132), 67%; in data set [3] (patient P0074, sample 14BP0079), 37%; in data set [3] (patient P0369, sample 13PB0555), 100%; in data set [3] (patient P0460, sample 14PB0471), 72%; in data set [3] (patient P0641, sample 13PB0500), 100%. The viability at 100 μM in data set [3] (patient P0641, sample 13PB0649) stood at 88%; in data set [3] (patient P0645, sample 13PB0473), 90%; in data set [3] (patient P0701, sample 14PB0451) it was 100%.
Consider “HPLC-purified HMGB1: HPLC-purified HMGB1 from the supernatant of Nkp30 stimulated blood donor NK cells”, for which the cytotoxicity entry in the data set with colorectal cancer cells (80 nM, 24 h, diluted in IgG1 control supernatant) is recorded as “substantial cytotoxicity”.
Turning to `Cn1c2cc([S+](C)[O-])sc2c2cnn(Cc3cccc(N)c3)c(=O)c21` (stereo not drawn) [ML-265, 6-(3-aminobenzyl)-4-methyl-2-(methylsulfinyl)-4,6-dihydro-5H-thieno[2′,3′:4,5]pyrrolo[2,3-d]pyridazin-5-one], the “competition with binding of HMGB1 to PKM2” value at PKM2 is “did not compete”; at PKM2 (listed as ML265) it was “does not compete”. For the same compound, the “induction of cell death” value with colorectal cancer cells (100 μM, 24 h) is “did not induce cytotoxicity; also recorded: not able to induce cell death”.
